Data as given in US20240382483A1, “HETEROCYCLIC EGFR INHIBITORS FOR USE IN THE TREATMENT OF CANCER” (Blueprint Medicines Corporation, priority 2021, published 2024).
Structures can show the parent of a compound that is named as a salt.

Columns and labels:
EGFR (L858R T790M C797S) = molecular target: T1, EGFR (L858R T790M C797S) (Homo sapiens, UniProt P00533, C797S/L858R/T790M); test: Biochemical EGFR inhibition assay (Caliper mobility shift), EGFR LRTMCS; settings: LRTMCS (PH) IC50 (nM) @ 1 mM ATP (Num), EGFR LRTMCS mutant
T1 construct: purchased SignalChem E10-122VG
T1 sequence (P00533 25-1210 T790M/C797S/L858R): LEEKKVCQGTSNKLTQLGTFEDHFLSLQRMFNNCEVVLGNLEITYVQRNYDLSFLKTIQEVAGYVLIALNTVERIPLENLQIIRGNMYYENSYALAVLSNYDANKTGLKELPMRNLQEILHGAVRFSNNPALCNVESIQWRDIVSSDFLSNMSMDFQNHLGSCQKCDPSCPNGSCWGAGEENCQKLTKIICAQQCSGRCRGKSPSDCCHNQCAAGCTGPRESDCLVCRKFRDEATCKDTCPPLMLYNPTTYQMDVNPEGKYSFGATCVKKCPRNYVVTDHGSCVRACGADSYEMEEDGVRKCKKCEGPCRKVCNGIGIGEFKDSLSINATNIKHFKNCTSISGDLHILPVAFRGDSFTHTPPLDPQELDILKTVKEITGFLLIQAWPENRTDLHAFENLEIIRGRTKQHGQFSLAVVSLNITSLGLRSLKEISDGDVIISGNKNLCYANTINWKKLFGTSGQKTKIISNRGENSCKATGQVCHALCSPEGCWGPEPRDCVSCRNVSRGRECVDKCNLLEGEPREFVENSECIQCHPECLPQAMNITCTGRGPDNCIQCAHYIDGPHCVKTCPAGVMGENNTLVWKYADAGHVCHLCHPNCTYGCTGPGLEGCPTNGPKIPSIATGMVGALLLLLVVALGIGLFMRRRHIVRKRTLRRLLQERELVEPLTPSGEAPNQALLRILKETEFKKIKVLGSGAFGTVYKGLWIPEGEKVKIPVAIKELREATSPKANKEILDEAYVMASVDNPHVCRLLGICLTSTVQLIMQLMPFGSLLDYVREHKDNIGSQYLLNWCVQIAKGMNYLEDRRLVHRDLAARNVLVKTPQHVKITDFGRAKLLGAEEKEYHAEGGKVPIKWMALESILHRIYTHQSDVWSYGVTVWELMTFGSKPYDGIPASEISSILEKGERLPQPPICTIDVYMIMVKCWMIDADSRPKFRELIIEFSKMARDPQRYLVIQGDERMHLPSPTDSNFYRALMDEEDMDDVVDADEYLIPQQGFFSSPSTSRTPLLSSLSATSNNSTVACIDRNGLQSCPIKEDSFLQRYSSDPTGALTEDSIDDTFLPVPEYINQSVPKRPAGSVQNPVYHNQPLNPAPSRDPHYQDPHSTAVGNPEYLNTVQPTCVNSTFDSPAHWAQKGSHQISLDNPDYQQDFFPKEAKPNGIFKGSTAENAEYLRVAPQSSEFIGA
Protocol: Reactions proceeded until between 10% to 20% total peptides were phosphorylated at room temperature (25° C.) and were terminated with 35 mM 2,2′,2″,2′″-(ethane-1,2-diyldinitrilo)tetraacetic acid (EDTA). Product was detected using the Caliper mobility shift detection method where the phosphorylated peptide (product) and substrate were electrophoretically separated and measured. Percent activity was plotted against log concentration of compound and points to generate an apparent IC50.

[1] = molecular target: T2, intracellular phosphorylation of EGFR in NCI-H1975 cell line that harbors the EGFR L858R T790M mutations (Homo sapiens, UniProt P00533, L858R/T790M); test: NCI-H1975 pEGFR AlphaLISA assay; type: cell-based; settings: NCI-H1975 cells (EGFR L858R T790M), p-EGFR (Tyr1068), 4-5 hours incubation; read-out: Ext pEGFR H1975 GMean IC50 (nM) Protocol: @Pharmaron AlphaLISA (Num)
T2 construct: NCI-H1975 cell line that harbors the EGFR L858R T790M mutations (ATCC, CRL-5908); host or cells: NCI-H1975
T2 sequence (P00533 25-1210 T790M/L858R): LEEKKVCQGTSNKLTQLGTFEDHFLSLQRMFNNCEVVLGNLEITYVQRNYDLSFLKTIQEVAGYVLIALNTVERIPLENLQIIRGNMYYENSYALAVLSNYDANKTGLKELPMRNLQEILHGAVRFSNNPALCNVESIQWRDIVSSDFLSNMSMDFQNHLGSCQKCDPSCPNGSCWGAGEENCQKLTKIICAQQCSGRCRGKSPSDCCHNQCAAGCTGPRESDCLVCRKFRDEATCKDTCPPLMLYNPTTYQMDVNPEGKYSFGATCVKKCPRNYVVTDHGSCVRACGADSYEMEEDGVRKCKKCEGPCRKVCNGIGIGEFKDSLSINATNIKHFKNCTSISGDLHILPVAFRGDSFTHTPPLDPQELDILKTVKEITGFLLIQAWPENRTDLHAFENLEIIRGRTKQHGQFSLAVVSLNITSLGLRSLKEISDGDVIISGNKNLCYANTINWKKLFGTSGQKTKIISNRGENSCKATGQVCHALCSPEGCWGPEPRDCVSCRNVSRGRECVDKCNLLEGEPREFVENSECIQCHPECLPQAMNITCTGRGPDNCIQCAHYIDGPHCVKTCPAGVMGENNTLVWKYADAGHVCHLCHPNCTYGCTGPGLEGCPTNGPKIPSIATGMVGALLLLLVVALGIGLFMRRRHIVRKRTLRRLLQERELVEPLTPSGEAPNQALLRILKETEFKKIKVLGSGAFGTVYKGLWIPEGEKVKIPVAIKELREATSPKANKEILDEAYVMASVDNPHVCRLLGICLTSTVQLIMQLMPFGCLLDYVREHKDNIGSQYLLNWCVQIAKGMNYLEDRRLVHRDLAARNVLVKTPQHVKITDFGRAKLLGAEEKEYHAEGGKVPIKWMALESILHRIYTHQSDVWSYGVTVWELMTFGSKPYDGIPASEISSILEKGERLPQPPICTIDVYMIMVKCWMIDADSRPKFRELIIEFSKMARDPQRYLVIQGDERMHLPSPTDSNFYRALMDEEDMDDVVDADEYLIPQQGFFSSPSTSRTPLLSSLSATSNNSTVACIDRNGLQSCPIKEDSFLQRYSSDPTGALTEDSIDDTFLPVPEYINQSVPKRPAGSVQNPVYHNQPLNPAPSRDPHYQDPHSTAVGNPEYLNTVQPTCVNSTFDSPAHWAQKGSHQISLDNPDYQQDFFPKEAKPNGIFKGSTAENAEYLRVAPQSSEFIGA
Protocol: On the next day, the test compounds and DMSO control were added into H1975 cell plate followed by incubation at 37C/5% CO2 for 4-5 hours. […] Then 5 μL of a donor bead mix was added to each well followed by overnight incubation at room temperature in dark. On the next day, the plate was read at a compatible plate reader to obtain pEGFR signal. Percent of pEGFR inhibition was plotted against log concentration of compounds to generate IC50 values.

| SMILES | IC50 (EGFR (L858R T790M C797S)) [nM] | IC50 [1] [nM] |
| --- | --- | --- |
| C[C@H](CO)c1ncc(N2CC[C@H]2C)c2cnc(Nc3ccnc(N4CC[C@@H](O)[C@@](C)(F)C4)n3)cc12 (single isomer, unassigned) [Example 178, (3S,4R)-3-fluoro-1-(4-((5-((S)-1-hydroxypropan-2-yl)-8-((R)-2-methylazetidin-1-yl)-2,6-naphthyridin-3-yl)amino)pyrimidin-2-yl)-3-methylpiperidin-4-ol or (3S,4R)-3-fluoro-1-(4-((5-((R)-1-hydroxypropan-2-yl)-8-((R)-2-methylazetidin-1-yl)-2,6-naphthyridin-3-yl)amino)pyrimidin-2-yl)-3-methylpiperidin-4-ol] | 20 to 30 | > 50 |
| CC(C)c1cnc(N2CCCC2)c2cnc(Nc3ccnc(N4CC[C@@H](O)[C@@H](F)C4)n3)cc12 [Example 151, (3S,4R)-3-fluoro-1-(4-((5-isopropyl-8-(pyrrolidin-1-yl)-2,7-naphthyridin-3-yl)amino)pyrimidin-2-yl)piperidin-4-ol] | 20 to 30 | 30 to 50 |
| CC(C)c1cnc(-c2nc[nH]n2)c2cnc(Nc3ccnc(N4CC[C@@H](O)[C@@](C)(F)C4)n3)cc12 [Example 25, (3S,4R)-3-fluoro-1-(4-((5-isopropyl-8-(1H-1,2,4-triazol-3-yl)-2,7-naphthyridin-3-yl)amino)pyrimidin-2-yl)-3-methylpiperidin-4-ol] | 15 to 20 | 30 to 50 |
| CO[C@@H]1CCN(c2nccc(Nc3cc4c(C(C)C)ncc(N5C[C@H](O)[C@H]5C)c4cn3)n2)C[C@@H]1O (single isomer, unassigned) [Example 119, (3S,4R)-1-(4-((8-((2R,3S)-3-hydroxy-2-methylazetidin-1-yl)-5-isopropyl-2,6-naphthyridin-3-yl)amino)pyrimidin-2-yl)-4-methoxypiperidin-3-ol or (3R,4S)-1-(4-((8-((2R,3S)-3-hydroxy-2-methylazetidin-1-yl)-5-isopropyl-2,6-naphthyridin-3-yl)amino)pyrimidin-2-yl)-4-methoxypiperidin-3-ol] | 20 to 30 | > 50 |
| CC(C)c1ccc(N2CC(C)(c3nnco3)C2)c2cnc(Nc3ccnc(N4CC[C@@H](O)[C@@](C)(F)C4)n3)cc12 [Example 113, (3S,4R)-3-fluoro-1-(4-((5-isopropyl-8-(3-methyl-3-(1,3,4-oxadiazol-2-yl)azetidin-1-yl)isoquinolin-3-yl)amino)pyrimidin-2-yl)-3-methylpiperidin-4-ol] | 20 to 30 | 10 to 20 |
| CC(C)c1cnc(N2CCC2)c2cnc(Nc3ccnc(N4CC[C@@H](O)[C@@H](F)C4)n3)cc12 [Example 152, (3S,4R)-1-(4-((8-(azetidin-1-yl)-5-isopropyl-2,7-naphthyridin-3-yl)amino)pyrimidin-2-yl)-3-fluoropiperidin-4-ol] | 15 to 20 | 30 to 50 |
| C[C@@H]1[C@@H](O)CN1c1ncc(C2CC2)c2cc(Nc3ccnc(N4CC[C@@H](O)[C@@](C)(F)C4)n3)ncc12 [Example 102, (3S,4R)-1-(4-((5-cyclopropyl-8-((2R,3S)-3-hydroxy-2-methylazetidin-1-yl)-2,7-naphthyridin-3-yl)amino)pyrimidin-2-yl)-3-fluoro-3-methylpiperidin-4-ol] | 20 to 30 | > 50 |
| CC(C)c1cnc(N2CC[C@H]2CN(C)C)c2cnc(Nc3ccnc(N4CC[C@@H](O)[C@@](C)(F)C4)n3)cc12 [Example 48, (3S,4R)-1-(4-((8-((S)-2-((dimethylamino)methyl)azetidin-1-yl)-5-isopropyl-2,7-naphthyridin-3-yl)amino)pyrimidin-2-yl)-3-fluoro-3-methylpiperidin-4-ol trifluoroacetate] | < 15 | 10 to 20 |
| CO[C@H]1CCN(c2cc(Nc3cc4c(C(C)C)ccc(N5CC(n6ccnn6)C5)c4cn3)ccn2)C[C@@H]1O (single isomer, unassigned) [Example 127, (3S,4S)-1-(4-((8-(3-(1H-1,2,3-triazol-1-yl)azetidin-1-yl)-5-isopropylisoquinolin-3-yl)amino)pyridin-2-yl)-4-methoxypiperidin-3-ol or (3R,4R)-1-(4-((8-(3-(1H-1,2,3-triazol-1-yl)azetidin-1-yl)-5-isopropylisoquinolin-3-yl)amino)pyridin-2-yl)-4-methoxypiperidin-3-ol] | 15 to 20 | 10 to 20 |
| CC(C)c1cnc(N2C[C@](C)(O)[C@H]2C)c2cnc(Nc3ccnc(N4CC[C@@H](O)[C@@](C)(F)C4)n3)cc12 [Example 78, (3S,4R)-3-fluoro-1-(4-((8-((2R,3S)-3-hydroxy-2,3-dimethylazetidin-1-yl)-5-isopropyl-2,7-naphthyridin-3-yl)amino)pyrimidin-2-yl)-3-methylpiperidin-4-ol] | 15 to 20 | 20 to 30 |
| C[C@H]1CCN1c1ncc(CC2(C)COC2)c2cc(Nc3ccnc(N4CC[C@@H](O)[C@@](C)(F)C4)n3)ncc12 (single isomer, unassigned) [Example 156, (3S,4R)-3-fluoro-3-methyl-1-(4-((8-((S)-2-methylazetidin-1-yl)-5-((3-methyloxetan-3-yl)methyl)-2,7-naphthyridin-3-yl)amino)pyrimidin-2-yl)piperidin-4-ol or (3S,4R)-3-fluoro-3-methyl-1-(4-((8-((R)-2-methylazetidin-1-yl)-5-((3-methyloxetan-3-yl)methyl)-2,7-naphthyridin-3-yl)amino)pyrimidin-2-yl)piperidin-4-ol] | 20 to 30 | > 50 |

Next, values leading:

| IC50 (EGFR (L858R T790M C797S)) [nM] | IC50 [1] [nM] | SMILES |
| --- | --- | --- |
| < 15 | 30 to 50 | CC(C)c1cnc(N2CC(C3COC3)C2)c2cnc(Nc3ccnc(N4CC[C@@H](O)[C@@](C)(F)C4)n3)cc12 [Example 101, (3S,4R)-3-fluoro-1-(4-((5-isopropyl-8-(3-(oxetan-3-yl)azetidin-1-yl)-2,7-naphthyridin-3-yl)amino)pyrimidin-2-yl)-3-methylpiperidin-4-ol] |
| < 15 | < 10 | C[C@H](CC#N)c1cnc(N2CC[C@H]2C)c2cnc(Nc3ccnc(N4CC[C@@H](O)[C@@](C)(F)C4)n3)cc12 (single isomer, unassigned) [Example 36, (R)-3-(6-((2-((3S,4R)-3-fluoro-4-hydroxy-3-methylpiperidin-1-yl)pyrimidin-4-yl)amino)-1-((R)-2-methylazetidin-1-yl)-2,7-naphthyridin-4-yl)butanenitrile or (S)-3-(6-((2-((3S,4R)-3-fluoro-4-hydroxy-3-methylpiperidin-1-yl)pyrimidin-4-yl)amino)-1-((R)-2-methylazetidin-1-yl)-2,7-naphthyridin-4-yl)butanenitrile] |
| < 15 | < 10 | COC[C@@H]1CCN1c1ncc(C(C)C)c2cc(Nc3ccnc(N4CC[C@@H](O)[C@@](C)(F)C4)n3)ncc12 [Example 29, (3S,4R)-3-fluoro-1-(4-((5-isopropyl-8-((S)-2-(methoxymethyl)azetidin-1-yl)-2,7-naphthyridin-3-yl)amino)pyrimidin-2-yl)-3-methylpiperidin-4-ol] |
| < 15 | 30 to 50 | CC(C)c1cnc(N2C[C@H](O)[C@H]2C)c2cnc(Nc3ccnc(N4CC[C@@H](O)C(C)(C)C4)n3)cc12 (single isomer, unassigned) [Example 168, (R)-1-(4-((8-((2R,3S)-3-hydroxy-2-methylazetidin-1-yl)-5-isopropyl-2,7-naphthyridin-3-yl)amino)pyrimidin-2-yl)-3,3-dimethylpiperidin-4-ol or (S)-1-(4-((8-((2R,3S)-3-hydroxy-2-methylazetidin-1-yl)-5-isopropyl-2,7-naphthyridin-3-yl)amino)pyrimidin-2-yl)-3,3-dimethylpiperidin-4-ol] |
| < 15 | 10 to 20 | CC(C)c1cnc(N2CC[C@H]2C)c2cnc(Nc3cnnc(N4CC[C@@H](O)[C@@](C)(F)C4)n3)cc12 (single isomer, unassigned) [Example 179, (3S,4R)-3-fluoro-1-(5-((5-isopropyl-8-((R)-2-methylazetidin-1-yl)-2,7-naphthyridin-3-yl)amino)-1,2,4-triazin-3-yl)-3-methylpiperidin-4-ol or (3R,4S)-3-fluoro-1-(5-((5-isopropyl-8-((R)-2-methylazetidin-1-yl)-2,7-naphthyridin-3-yl)amino)-1,2,4-triazin-3-yl)-3-methylpiperidin-4-ol] |
| < 15 | 10 to 20 | CO[C@@H]1CCN(c2nccc(Nc3cc4c(C(C)C)cnc(N5C[C@H](O)[C@H]5C)c4cn3)n2)C[C@@H]1O (single isomer, unassigned) [Example 122, (3S,4R)-1-(4-((8-((2R,3S)-3-hydroxy-2-methylazetidin-1-yl)-5-isopropyl-2,7-naphthyridin-3-yl)amino)pyrimidin-2-yl)-4-methoxypiperidin-3-ol or (3R,4S)-1-(4-((8-((2R,3S)-3-hydroxy-2-methylazetidin-1-yl)-5-isopropyl-2,7-naphthyridin-3-yl)amino)pyrimidin-2-yl)-4-methoxypiperidin-3-ol] |
